The experiment has as its system blood collected from a volunteer. Put plainly: Measurement of whole blood clotting time (Sonoclot, ACT ONSET). On the set-up: species or system human. Here is the method:
The blood collected from a volunteer and citric acid were mixed at a volume ratio of 9/1 to prepare blood supplemented with citric acid.
In a cuvette (NON-ACTIVATED CLOTTING TEST KIT), 18 μL of physiological saline solution was placed, and 14.8 μL of calcicol was added thereto, followed by further adding 342 μL of blood supplemented with citric acid. Thereafter, the measurement using Sonoclot Blood Coagulation/Platelet Function Analyzer (IMI) was carried out to define the obtained ACT ONSET value as whole blood clotting time. The whole blood clotting time of the blood collected by volunteer was 545 seconds.

Turning to `CC1CNc2c(cccc2S(=O)(=O)N[C@@H](CCCNC(=N)N)C(=O)N2CC[C@@H](C)C[C@@H]2C(=O)O)C1` (mixture of isomers) [argatroban, (2R,4R)-4-methyl-1-((2S)-2-{[(3RS)-3-methyl-1,2,3,4-tetrahydroquinolin-8-yl]sulfonyl}amino-5-guanidinopentanoyl)piperidin-2-carboxylic acid], the “Whole blood clotting time” value stood at 531 s (2 μM argatroban solution in place of physiological saline solution), 746 s (10 μM argatroban solution in place of physiological saline solution) and 849 s (20 μM argatroban solution in place of physiological saline solution).

For the origin of these results see patent US20120271010A1, “HYDROPHILIC POLYMER COMPOUND HAVING ANTICOAGULATION EFFECT” (TORAY INDUSTRIES, INC., priority 2009, published 2012).
